Assays:
[1] = test system: MRSA HS 10132; test: Systemic non-lethal MRSA infection in mice (organ MRSA load); assay type: in vivo
[2] = test system: Escherichia coli O157:H7; test: Rescue concentrations of SP-BIM that reactivate antibiotic; assay type: cell-based
[3] = test system: clinical antibiotic resistant isolates of MRSA; test: Checkerboard resistance breaking by SP-BIM 13; assay type: cell-based, Staphylococcus aureus; details: for FIC compound: SP-BIM 13 with the labelled antibiotic; for Interpretation / Σ FIC: antibiotic + SP-BIM 13; for MIC of antibiotic only: antibiotic alone; for FIC antibiotic: combination with SP-BIM 13; for MIC of antibiotic in combination: with SP-BIM 13 at rescue concentration
[4] = test system: Enterobacter cloacae; test: Adjuvant broth microdilution (antibiotic MIC with SP-BIM at 50 μg/mL); assay type: cell-based; details: antibiotic alone
[5] = test system: Pseudomonas aeruginosa; test: as above; assay type: cell-based; details: antibiotic alone
[6] = test system: clinical strains of MRSA; test: Kirby Bauer disc diffusion susceptibility profile; assay type: cell-based, Staphylococcus aureus; details: for Zone of clearance: 35° C., 24 hours, average n=3; for Interpretive standard (resistant/susceptible): zones vs EUCAST breakpoints (Table 30)
[7] = test system: clinical strains of Enterococcus faecium; test: Kirby Bauer disc diffusion susceptibility profile; assay type: cell-based; details: for Zone of clearance: 35° C., 24 hours, average n=3; for Interpretive standard (resistant/susceptible): zones vs EUCAST breakpoints (Table 31)

SMILES: CC1(C)S[C@@H]2[C@H](NC(=O)[C@H](N)c3ccccc3)C(=O)N2[C@H]1C(=O)O [Ampicillin, ampicillin]
- MRSA load in the spleen ([1]; ampicillin only ([…] mg kg^−1), SP-BIM 9 study): 14,622 CFU g^−1
- MRSA counts in liver ([1]; ampicillin only ([…] mg kg^−1), subcutaneous): 3500 CFU mL^−1
- MRSA counts in the liver ([1]; ampicillin only, SP-BIM 9 study): 7605 CFU g^−1
- MIC of Ampicillin in combination with […] SP-BIM 27 ([2]; E. coli O157:H7, with […] SP-BIM 27): 2 µg/mL
- MIC ([2]; Escherichia coli, read-out: MIC of Ampicillin): 16 µg/mL
- FIC compound ([3]; MRSA strain 1594): 0.128
- Interpretation ([3]; MRSA strain 1594): Synergy (Synergy: FICI≤0.5)
- Σ FIC ([3]; MRSA strain 1594): <0.14
- MIC of antibiotic only ([3]; MRSA strain 1594): 250 µg/mL
- FIC antibiotic ([3]; MRSA strain 1594): 0.016
- MIC of antibiotic in combination ([3]; MRSA strain 1594): 4 µg/mL
- FIC compound ([3]; MRSA strain 1621): 0.128
- Interpretation ([3]; MRSA strain 1621): Synergy (Synergy: FICI≤0.5)
- Σ FIC ([3]; MRSA strain 1621): <0.13
- MIC of antibiotic only ([3]; MRSA strain 1621): 250 µg/mL
- FIC antibiotic ([3]; MRSA strain 1621): 0.002
- MIC of antibiotic in combination ([3]; MRSA strain 1621): 0.5 µg/mL
- FIC compound ([3]; MRSA strain 5455): 0.252
- Interpretation ([3]; MRSA strain 5455): Synergy (Synergy: FICI≤0.5)
- Σ FIC ([3]; MRSA strain 5455): <0.26
- MIC of antibiotic only ([3]; MRSA strain 5455): 250 µg/mL
- FIC antibiotic ([3]; MRSA strain 5455): 0.004
- MIC of antibiotic in combination ([3]; MRSA strain 5455): 1 µg/mL
- FIC compound ([3]; MRSA strain 5872): 0.128
- Interpretation ([3]; MRSA strain 5872): Synergy (Synergy: FICI≤0.5)
- Σ FIC ([3]; MRSA strain 5872): <0.13
- MIC of antibiotic only ([3]; MRSA strain 5872): 250 µg/mL
- FIC antibiotic ([3]; MRSA strain 5872): 0.002
- MIC of antibiotic in combination ([3]; MRSA strain 5872): 0.5 µg/mL
- FIC compound ([3]; MRSA strain 7153): 0.252
- Interpretation ([3]; MRSA strain 7153): Synergy (Synergy: FICI≤0.5)
- Σ FIC ([3]; MRSA strain 7153): <0.25
- MIC of antibiotic only ([3]; MRSA strain 7153): 250 µg/mL
- FIC antibiotic ([3]; MRSA strain 7153): 0.002
- MIC of antibiotic in combination ([3]; MRSA strain 7153): 0.5 µg/mL
- FIC compound ([3]; MRSA strain 7172): 0.128
- Interpretation ([3]; MRSA strain 7172): Synergy (Synergy: FICI≤0.5)
- Σ FIC ([3]; MRSA strain 7172): <0.14
- MIC of antibiotic only ([3]; MRSA strain 7172): 250 µg/mL
- FIC antibiotic ([3]; MRSA strain 7172): 0.008
- MIC of antibiotic in combination ([3]; MRSA strain 7172): 2 µg/mL
- FIC compound ([3]; MRSA strain 7698): 0.128
- Interpretation ([3]; MRSA strain 7698): Synergy (Synergy: FICI≤0.5)
- Σ FIC ([3]; MRSA strain 7698): <0.14
- MIC of antibiotic only ([3]; MRSA strain 7698): 250 µg/mL
- FIC antibiotic ([3]; MRSA strain 7698): 0.008
- MIC of antibiotic in combination ([3]; MRSA strain 7698): 2 µg/mL
- FIC compound ([3]; MRSA strain 10132): 0.064
- Interpretation ([3]; MRSA strain 10132): Synergy (Synergy: FICI≤0.5)
- Σ FIC ([3]; MRSA strain 10132): <0.07
- MIC of antibiotic only ([3]; MRSA strain 10132): 250 µg/mL
- FIC antibiotic ([3]; MRSA strain 10132): 0.002
- MIC of antibiotic in combination ([3]; MRSA strain 10132): 0.5 µg/mL
- MIC of antibiotic without SP-BIM 13 ([3]; clinical MRSA strains): ≥ 250 µg/mL
- MIC of antibiotic, No Compound [4]: >250 µg/mL
- MIC of antibiotic, No Compound [5]: >250 µg/mL
- Zone of clearance ([6]; MRSA strain 1594): 13.0 mm
- Interpretive standard (resistant/susceptible) ([6]; MRSA strain 1594): R
- Interpretive standard (resistant/susceptible) ([6]; MRSA strain 1621): R
- Zone of clearance ([6]; MRSA strain 5455): 14.5 mm
- Interpretive standard (resistant/susceptible) ([6]; MRSA strain 5455): R
- Zone of clearance ([6]; MRSA strain 5872): 9.0 mm
- Interpretive standard (resistant/susceptible) ([6]; MRSA strain 5872): R
- Zone of clearance ([6]; MRSA strain 7153): 13.5 mm
- Interpretive standard (resistant/susceptible) ([6]; MRSA strain 7153): R
- Zone of clearance ([6]; MRSA strain 7172): 14.5 mm
- Interpretive standard (resistant/susceptible) ([6]; MRSA strain 7172): R
- Zone of clearance ([6]; MRSA strain 7698): 10.5 mm
- Interpretive standard (resistant/susceptible) ([6]; MRSA strain 7698): R
- Zone of clearance ([6]; MRSA strain 10132): 14.0 mm
- Interpretive standard (resistant/susceptible) ([6]; MRSA strain 10132): R
- Zone of clearance ([7]; E. faecium strain 15134): 37 mm
- Interpretive standard (resistant/susceptible) ([7]; E. faecium strain 15134): S
- Zone of clearance ([7]; E. faecium strain 21024): 32 mm
- Interpretive standard (resistant/susceptible) ([7]; E. faecium strain 21024): S
- Zone of clearance ([7]; E. faecium strain 21955): 32 mm
- Interpretive standard (resistant/susceptible) ([7]; E. faecium strain 21955): S
- Zone of clearance ([7]; E. faecium strain 22003): 37 mm
- Interpretive standard (resistant/susceptible) ([7]; E. faecium strain 22003): S
- Zone of clearance ([7]; E. faecium strain 22870): 10 mm
- Interpretive standard (resistant/susceptible) ([7]; E. faecium strain 22870): R
- Zone of clearance ([7]; E. faecium strain 23227): 26 mm
- Interpretive standard (resistant/susceptible) ([7]; E. faecium strain 23227): S
- Zone of clearance ([7]; E. faecium strain 23230): 36 mm
- Interpretive standard (resistant/susceptible) ([7]; E. faecium strain 23230): S
- Zone of clearance ([7]; E. faecium strain 23668): 39 mm
- Interpretive standard (resistant/susceptible) ([7]; E. faecium strain 23668): S
- Zone of clearance ([7]; E. faecium strain 24169): 33 mm
- Interpretive standard (resistant/susceptible) ([7]; E. faecium strain 24169): S
- Zone of clearance ([7]; E. faecium strain RC63): 12 mm
- Interpretive standard (resistant/susceptible) ([7]; E. faecium strain RC63): R

— patent publication US12285407B2, “Bis-indolylmethane derivatives and uses thereof” (The University of The West Indies, priority 2018, dated 2025)
